Measured values: patent US11518761B2, “CDPK1 inhibitors, compositions, and methods related thereto” (Vyera Pharmaceuticals, LLC, priority 2017, dated 2022)

Target: T. gondii CDPK1 (tgCDPK1) (Toxoplasma gondii, UniProt Q9BJF5)
Test: biochemical
Settings: at least three independent replicates
Procedure: Certain of the compounds prepared as described above were assayed to determine their IC50 for inhibition of T. gondii CDPK1 (tgCDPK1). At least three independent replicates of the assay were conducted for each compound tested.

Chain of T. gondii CDPK1 (tgCDPK1) (Q9BJF5 1-507): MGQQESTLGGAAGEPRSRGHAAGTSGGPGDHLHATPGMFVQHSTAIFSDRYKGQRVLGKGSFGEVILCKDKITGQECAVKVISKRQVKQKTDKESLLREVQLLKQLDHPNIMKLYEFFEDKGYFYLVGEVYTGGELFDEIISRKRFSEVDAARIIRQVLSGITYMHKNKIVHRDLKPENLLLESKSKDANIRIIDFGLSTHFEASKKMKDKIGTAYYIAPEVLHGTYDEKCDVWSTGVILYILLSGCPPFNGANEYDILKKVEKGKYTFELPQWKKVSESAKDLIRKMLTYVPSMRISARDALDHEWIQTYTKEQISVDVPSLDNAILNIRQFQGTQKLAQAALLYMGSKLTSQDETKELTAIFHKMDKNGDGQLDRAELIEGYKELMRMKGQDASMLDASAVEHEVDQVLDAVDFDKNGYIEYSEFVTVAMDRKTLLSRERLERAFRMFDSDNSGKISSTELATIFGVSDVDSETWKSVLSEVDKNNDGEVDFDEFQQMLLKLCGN

Molecule | IC50 [nM]
Nc1ncnc2c1c(Oc1cc(C(F)(F)F)ccn1)nn2C1CC1 [Compound 77, 1-cyclopropyl-3-((4-(trifluoromethyl)pyridin-2-yl)oxy)-1H-pyrazolo[3,4-d]pyrimidin-4-amine] | 16.5
Nc1ncnc2c1c(Cc1cccc(Cl)c1)nn2[C@H]1C[C@@H](O)C1 [Compound 130, (cis)-3-(4-amino-3-(3-chlorobenzyl)-1H-pyrazolo[3,4-d]pyrimidin-1-yl)cyclobutan-1-ol] | 15.4
Nc1ncnc2c1c(Cc1cccc(F)c1)nn2[C@H]1C[C@@H](O)C1 [Compound 132] | 28.4
Nc1ncnc2c1c(Oc1cccc(Cl)c1)nn2[C@H]1C[C@@H](O)C1 [Compound 152] | 27.3
Nc1ncnc2c1c(Oc1cccc(F)c1)nn2[C@H]1C[C@@H](O)C1 [Compound 153, (cis)-3-(4-ammo-3-(3-fluorophenoxy)-1H-pyrazolo[3,4-d]pyrimidin-1-yl)cyclobutan-1-ol] | 33.8
Nc1ncnc2c1c(Cc1c[nH]c3ccc(F)cc13)nn2[C@H]1C[C@H](O)C1 [Compound 154, (trans)-3-(4-amino-3-((5-fluoro-1H-indol-3-yl)methyl)-1H-pyrazolo[3,4-d]pyrimidin-1-yl)cyclobutan-1-ol] | 11.8
Nc1ncnc2c1c(Oc1cccc(F)c1)nn2[C@H]1C[C@H](O)C1 [Compound 155, (trans)-3-(4-amino-3-(3-fluorophenoxy)-1H-pyrazolo[3,4-d]pyrimidin-1-yl)cyclobulan-1-ol] | 38
Nc1ncnc2c1c(Oc1cc(Cl)ccn1)nn2[C@H]1C[C@H](F)C1 [Compound 158, 3-[(4-chloropyridin-2-yl)oxy]-1-[(trans)-3-fluorocyclobutyl]-l H-pyrazolo[3,4-d]pyrimidin-4-amine] | 11.4
Nc1ncnc2c1c(Oc1cccc(C(F)(F)F)c1)nn2[C@H]1C[C@H](F)C1 [Compound 166] | 28.9
(2-((4-amino-1-cyclopropyl-1H-pyrazolo[3,4-d]pyrimidin-3-yl)oxy)pyrimidin-4-yl)methanol [Compound 86] | 29.6
